This is an account of results in US11033537B2, “LPT-723 and immune checkpoint inhibitor combinations and methods of treatment” (BIOMED VALLEY DISCOVERIES, INC., priority 2015, dated 2021).

What all share (format): cell-based, murine
In one test the test system is Pan02 cells. In words: In vitro cell viability assay (CellTiter-Glo), Pan02. The text has this: No significant changes in body weights were noted.
The next test has as its system A20 cells. In words: In vitro cell viability assay, A20.
A further test has as its system MBT-2 cells. In words: In vitro cell viability assay, MBT-2.

Usually IC50 stands for the concentration that gives 50% inhibition.

`N.N.[Cl][Pt][Cl]` [Cisplatin, reference compound]: the results for the IC50 with Pan02 cells, in the test with A20 cells and with MBT-2 cells were 1090 nM, 1070 nM and 6870 nM, respectively.
